Where a SMILES comes first, the peptide text is derived from it. The star is where a group is joined. Cbz = O=C(OCc1ccccc1)*; CH2F = FC*
What was measured:
ferritin (Mus musculus) = tested on: T1, ferritin (Mus musculus); assay: Western blot of ferritin expression (ferritin degradation) in B16F10 cells; format: cell-based, murine; conditions: Epox 1 μM pretreatment 1 h; for effect on DeFer-2-mediated ferritin degradation: DeFer-2 0.5 μM 12 h, VHL ligand 50 μM in excess
T1 construct: ferritin expression levels in B16F10 cells were evaluated; endogenous in cells; host or cells: B16F10 (murine melanoma)
Procedure: Western blot analysis: After various treatments, ferritin expression levels in B16F10 cells were evaluated to investigate the DeFer-2-mediated ferritin degradation. Briefly, B16F10 cells were seeded in 6-well culture plates (5×10^4 cells per well) and cultured for 24 h. Then the medium in the corresponding wells except the negative control was replaced with 1 mL of medium containing ferritin degraders, albumin nanoparticles, the epimer formulations, the combination of VHL ligand and oleic acid, or the combination of the degrader and VHL ligand at the indicated concentrations. […] The lysates were centrifuged at 12,000 rpm for 10 min at 4° C., followed by quantification of the total proteins in the supernatant through the bicinchoninic acid assay (BCA) assay. Afterward, the proteins in the supernatant were mixed with the loading buffer and heated at 95° C. for 15 min. Equal amounts of proteins from different samples were loaded into 15% SDS-polyacrylamide gel (20 μg protein per lane) to separate target proteins. After separation, proteins were transferred to polyvinylidene fluoride (PVDF) membranes before the membranes were blocked with 5% nonfat milk in PBST. Then proteins were incubated with primary antibodies overnight at 4° C., followed by the incubation with the goat-anti-rabbit IgG H&L (HRP) secondary antibodies at room temperature for 2 h. Finally, the bands were detected with electrochemiluminescence (ECL) western blot substrate for imaging, and ImageJ software was used for quantification.

cleaved caspase 3 = assay: Western blot of cleaved caspase 3 in B16F10 cells; format: cell-based, murine; conditions: GSH pretreatment 4 h
Procedure: (§1) As for the determination of cleaved-GSDME and cleaved-caspase-3, B16F10 cells were seeded in 6-well culture plates (2×10^5 cells per well) and cultured for 24 h. Then the medium in the corresponding wells except the negative control was replaced with 1 mL of medium containing ferritin degraders, albumin nanoparticles, or the degrader with inhibitors at the indicated concentrations. Incubation for another 6 or 8 h was used to test the cleaved-caspase-3, while treatment for another 16 or 20 h was used to test cleaved-GSDME. The following procedures were the same as mentioned above.

GSDME-N = assay: Western blot of cleaved N-terminal GSDME (GSDME-N) in B16F10 cells; format: cell-based, murine; conditions: GSH pretreatment 4 h
Procedure: as §1

[1] = target: T2, apoferritin from equine spleen (Equus caballus, UniProt P02791); assay: Isothermal titration calorimetry (ITC) binding to ferritin
T2 construct: the apoferritin from equine spleen (A3660, Sigma-Aldrich) that is not combined with iron was used; purchased Sigma-Aldrich A3660; host or cells: equine spleen (tissue-derived)
T2 sequence (P02791 2-175 limits assumed): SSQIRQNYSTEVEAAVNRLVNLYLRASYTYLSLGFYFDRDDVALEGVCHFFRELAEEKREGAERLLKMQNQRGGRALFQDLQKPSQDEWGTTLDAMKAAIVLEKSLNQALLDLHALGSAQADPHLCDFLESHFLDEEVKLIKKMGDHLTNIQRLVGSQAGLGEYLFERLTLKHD
Procedure: As for the ferritin proteins, the apoferritin from equine spleen (A3660, Sigma-Aldrich) that is not combined with iron was used. Before the ITC test, 1 mL of apoferritin in glycerol solution (50% glycerol and 0.075 M NaCl) was placed in a dialysis bag with a molecular weight cut-off of 3 kDa. The dialysis bags were then immersed in the prepared solution (20 mM Tris-HCl, pH 8.5, and 130 mM NaCl) and stirred at room temperature. The dialysis buffer was changed every 24 h for three times, and the last buffer was collected and 0.05% DMSO was added to serve as the ITC buffer. As for the oleic acid, 12 μM apoferritin in the ITC buffer was placed in the ITC cell, and the syringe was full of 250 μM oleic acid in the same ITC buffer. Besides the first injection with 5 μL of the oleic acid solution, 18 aliquots with 10 μL of the oleic acid solution were titrated into the apoferritin solution with a time interval of 300 s. […] Besides the first injection with 1 μL of the apoferritin solution, 25 aliquots were titrated with a time interval of 300 s. Raw data were corrected for control titrations (the solution in the syringe into the blank ITC buffer in the cell) and integrated using Origin 7.0 (MicroCal). Binding kinetics parameters, including N, Kd, ΔH, and ΔS, were calculated using a single-class binding site model.

B16F10 cells [2] = assay: Cell viability evaluation by CCK-8 assay; conditions: B16F10 cells, DeFer-2 5 μM; DFOM 25 μM, Z-VAD 10 μM, NSCI 0.1 μM, VX-765 10 μM
Procedure: Cell viability evaluation: The cell viability of B16F10 cells treated with ferritin degraders with or without various inhibitors was evaluated by CCK-8 assay. Briefly, 5×10^3 cells were seeded in 96-well plates and cultured for 24 h for attachment. Then the medium in the corresponding wells, except the control, was replaced with 100 μL of medium containing the indicated degrader formulations with concentrations of 0.008, 0.04, 0.2, 1, and 5 μM. After incubation for 24 or 48 h, CCK-8 reagent was added and interacted with cells at 37° C. for 1 h. The absorbance was measured by a microplate reader (Infinite M Plex) at the detection wavelength of 450 nm.
For blocking assays with Z-VAD, NSCI, and VX-765, 5×10^3 cells were seeded in 96-well plates and cultured 24 h for attachment. Then the medium in the corresponding wells, except the control, was replaced with 100 μL of medium containing Z-VAD (10 μM), NSCI (0.1 μM), or VX-765 (10 μM). […] Following another 24-h incubation, CCK-8 reagents were added and interacted with cells at 37° C. for 1 h. The absorbance was measured by a microplate reader (Infinite® M Plex) at the detection wavelength of 450 nm. For blocking assays with DFOM, 5×10^3 cells were seeded in 96-well plates and cultured 24 h for attachment. […] Following another 20-h incubation, CCK-8 reagents were added and interacted with cells at 37° C. for 1 h. The absorbance was measured by a microplate reader (Infinite® M Plex) at the detection wavelength of 450 nm.

B16F10 cells [3] = assay: LDH release assay; format: cell-based, murine; conditions: inhibitor pretreatment 4 h, DeFer-2 5 μM, NSCI 0.1 μM, VX-765 10 μM
Procedure: After incubation for 24 h, the cell samples were used to measure LDH release according to the manufacturer's instructions of CytoScan™ LDH Cytotoxicity Assay kit from G-Biosciences (St. Louis, MO, USA).
Following another 24-h incubation, the cell samples were used to measure LDH release according to the manufacturer's instructions of CytoScan™ LDH Cytotoxicity Assay kit from G-Biosciences (St. Louis, MO, USA).

With CC[C@H](C)[C@H](NC(=O)[C@H]([C@@H](C)CC)N(C)C(C)=O)C(=O)N[C@H](C(=O)N[C@@H](CC(C)C)C(=O)[C@@]1(C)CO1)[C@@H](C)O [Epox, epoxomicin, reference compound] the “effect on aDeFer-2-mediated ferritin degradation” value (ferritin (Mus musculus); B16F10 cells, 0.5 μM, 12 h) was “compromised the aDeFer-2-mediated ferritin degradation” and the “effect on DeFer-2-mediated ferritin degradation” value (ferritin (Mus musculus)) was “inhibited”.

N[C@@H](CCC(=O)N[C@@H](CS)C(=O)NCC(=O)O)C(=O)O [GSH, glutathione, reference compound] was tested, and the “effect of pretreatment on DeFer-2-caused caspase 3 activation” value (cleaved caspase 3) was “substantially reduced activated caspase 3” and the “effect of pretreatment on DeFer-2-caused GSDME-N generation” value (GSDME-N) was “compromised by GSH pretreatment”.

For CCCCCCCC/C=C\CCCCCCCC(=O)O [OA, oleic acid, reference compound], the Kd [1] was 12.8 ± 2.89 µM.

For Cc1ncsc1-c1ccc(CNC(=O)[C@@H]2C[C@@H](O)CN2C(=O)[C@@H](N)C(C)(C)C)cc1.Cl [VHL ligand, (2S,4R)-1-((S)-2-amino-3,3-dimethylbutanoyl)-4-hydroxy-N-(4-(4-methylthiazol-5-yl)benzyl) pyrrolidine-2-carboxamide hydrochloride, reference compound], the “effect on DeFer-2-mediated ferritin degradation” value (ferritin (Mus musculus)) was “compromised”.

With CCO[C@@H]1OC(=O)C[C@@H]1NC(=O)[C@@H]1CCCN1C(=O)[C@@H](NC(=O)c1ccc(N)c(Cl)c1)C(C)(C)C [VX-765, reference compound] the “effect on DeFer-2-induced cytotoxicity / cell death” value (B16F10 cells [2]) was “remained unchanged” and the “effect on LDH release caused by DeFer-2” value (B16F10 cells [3]) was “barely affected”.

COC(=O)C[C@H](NC(=O)[C@H](C)NC(=O)[C@@H](NC(=O)OCc1ccccc1)C(C)C)C(=O)CF [Z-VAD, Z-VAD(OMe)-FMK, reference compound] (Cbz-Val-Ala-Asp(OMe)-CH2F) was tested, and the “effect on DeFer-2-induced cytotoxicity / cell death” value (B16F10 cells [2]) was “compromised”.
